Laboratory results as given in US6403607B1, “Sulfonamide derivatives and drugs containing the same as the active ingredient” (priority 1998, dated 2002).
Values after ≈ are worked out from the molar mass of the structure shown. Where two headings read alike, the source gives them in different places.

Assays:
Helicobacter pylori = assay: Anti-Helicobacter-pylori action (agar plate dilution MIC); assay type: cell-based; conditions: clinically isolated 10 bacterial strains, agar plate dilution method
Description: Anti-Helicobacter-pylori Action
Using clinically isolated 10 bacterial strains, the minimum inhibitory concentration (MIC) was measured according to the agar plate dilution method.

[1] = test system: ethanol ulcer in the gland gastric region; assay: Ethanol ulcer; assay type: in vivo; conditions: rats fasted 24 hours, drug oral, 99.5% ethanol 1 ml/rat after one hour, size of ulcer one hour later; for Suppression: dose not given
Description: Ethanol Ulcer Rats were fasted for 24 hours and orally administered with a drug. After one hour, 99.5% ethanol (1 ml/rat) was fed through oral administration. After one hour of ethanol administration, the abdomens of the rats were dissected and the size of ulcer in the gland gastric region was measured for each rat.

[2] = test system: HCl-ethanol ulcer in the gland gastric region; assay: HCl-ethanol ulcer; assay type: in vivo, Rats
Description: HCl-ethanol Ulcer Rats were fasted for 24 hours and orally administered with a drug. After one hour, 60% ethanol containing 0.15 N hydrochloric acid (1 ml/rat) was perorally administered to each rat. One hour after ethanol administration, the size of ulcer in the gland gastric region was measured for evaluation of anti-ulcer effects of the drug.

[3] = Helicobacter pylori, read-out: MIC
[4] = rats fasted 24 hours, drug oral, 60% ethanol containing 0.15 N hydrochloric acid 1 ml/rat after one hour, size of ulcer one hour later, dose not given

SMILES | MIC (Helicobacter pylori) [µg/mL] | Suppression [1] [%] | also measured
O=S(=O)(c1ccc(Cl)cc1)N(CCO)c1ccccc1NCCOc1ccc(Cl)cc1 [Example 9, N-(4-Chlorobenzenesulfonyl)-N-(2-hydroxyethyl]-N′-[2-(4-chlorophenoxy)ethyl]-o-phenylenediamine] | – | 85 | MIC (Helicobacter pylori; [3]): 25 to 50 µg/mL (≈ 51.9 to 104 µM)
O=S(=O)(c1ccc(Cl)cc1)N(CCCc1ccncc1)c1ccccc1NCCOc1ccc(Cl)cc1 [Example 10, N-(4-Chlorobenzenesulfonyl)-N-[3-(4-pyridyl)propyl]-N′-[2-(4-chlorophenoxy)ethyl]-o-phenylenediamine] | – | 82 | MIC (Helicobacter pylori; [3]): 25 to 100 µg/mL (≈ 44.9 to 180 µM)
COc1ccc(S(=O)(=O)N(CCN)c2ccccc2NCCOc2ccc(Cl)cc2)cc1 [Example 11, N-(2-Aminoethyl)-N-(4-methoxybenzenesulfonyl)-N′-[2-(4-chlorophenoxy)ethyl]-o-phenylenediamine] | – | 96 | –
CNC(=NC#N)NCCOCCN(c1ccccc1NCCOc1ccc(Cl)cc1)S(=O)(=O)c1ccc(Cl)cc1 [Example 14, N-(4-Chlorobenzenesulfonyl)-N-[2-(2-cyano-3-methylguanidino)ethoxyethyl]-N′-[2-(4-chlorophenoxy)ethyl]-o-phenylenediamine] | – | – | MIC (Helicobacter pylori; [3]): 6.25 to 50 µg/mL (≈ 10.3 to 82.6 µM)
NCCOCCN(c1ccccc1NCCOc1ccc(Cl)cc1)S(=O)(=O)c1ccccc1 [Example 33] | – | 83 | –
Cc1ccc(S(=O)(=O)N(CCOCCN)c2ccccc2NCCOc2ccc(Cl)cc2)cc1 [Example 35, N-[2-(2-Amino)ethoxyethyl]-N-(p-toluenesulfonyl)-N′-[2-(4-chlorophenoxy)ethyl]-o-phenylenediamine] | – | 99 | –
Cc1ccc(S(=O)(=O)N(CCN(C)C)c2ccccc2NCCOc2ccc(Cl)cc2)cc1.Cl [Example 36, N-[2-(Dimethylamino)ethyl]-N-(p-toluenesulfonyl)-N′-[2-(4-chlorophenoxy)ethyl]-o-phenylenediamine Hydrochloride] | – | – | Suppression [2, 4]: 92%
CN(C)CCN(c1ccccc1NCCOc1ccc(Cl)cc1)S(=O)(=O)c1cccc2ccccc12.Cl [Example 38, N-[2-(Dimethylamino)ethyl]-N-(1-naphthalenesulfonyl)-N′-[2-(4-chlorophenoxy)ethyl]-o-phenylenediamine Hydrochloride] | – | – | Suppression [2, 4]: 93%
NCCOCCN(c1ccccc1NCCOc1ccc(Cl)cc1)S(=O)(=O)c1ccc(F)cc1 [Example 41, N-[2-(2-Amino)ethoxyethyl]-N-(4-fluorobenzenesulfonyl)-N′-[2-(4-chlorophenoxy)ethyl]-o-phenylenediamine] | – | 93 | –
CN(C)CCN(c1ccccc1NCCOc1ccc(Cl)cc1)S(=O)(=O)c1ccc(Br)cc1.Cl [Example 44, N-[2-(Dimethylamino)ethyl]-N-(4-bromobenzenesulfonyl)-N′-[2-(4-chlorophenoxy)ethyl]-o-phenylenediamine.HCl] | – | – | Suppression ([2]; rat, in vivo, po): 87%
NCCOCCN(c1ccccc1NCCOc1ccc(F)cc1)S(=O)(=O)c1ccc(Cl)cc1 [Example 47, N-[2-(2-Amino)ethoxyethyl]-N-(4-chlorobenzenesulfonyl)-N′-[2-(4-fluorophenoxy)ethyl]-o-phenylenediamine] | – | 100 | –
CN(C)CCN(c1ccccc1NCCOc1ccc(F)cc1)S(=O)(=O)c1ccc(Cl)cc1.Cl [Example 48, N-[2-(Dimethylamino)ethyl]-N-(4-chlorobenzenesulfonyl)-N′-[2-(4-fluorophenoxy)ethyl]-o-phenylenediamine Hydrochloride] | – | – | Suppression [2, 4]: 85%
CN(C)CCN(c1ccccc1NCCOc1ccc(Cl)cc1)S(=O)(=O)c1cccc(Cl)c1.Cl [Example 52, N-[2-(Dimethylamino)ethyl]-N-(3-chlorobenzenesulfonyl)-N′-[2-(4-chlorophenoxy)ethyl]-o-phenylenediamine Hydrochloride] | – | – | Suppression [2, 4]: 87%
Cc1ccc(OCCNc2ccccc2N(CCN(C)C)S(=O)(=O)c2ccc(Cl)cc2)cc1.Cl [Example 53, N-[2-(Dimethylamino)ethyl]-N-(4-chlorobenzenesulfonyl)-N′-[2-(4-methylphenoxy)ethyl]-o-phenylenediamine Hydrochloride] | – | – | Suppression [2, 4]: 92%
CN(C)CCN(c1ccccc1NCCOc1ccc(Br)cc1)S(=O)(=O)c1ccc(Cl)cc1.Cl [Example 54, N-[2-(Dimethylamino)ethyl]-N-(4-chlorobenzenesulfonyl)-N′-[2-(4-bromophenoxy)ethyl]-o-phenylenediamine Hydrochloride] | – | – | Suppression [2, 4]: 77%
NCCN(c1ccccc1NCCNc1ccc(Cl)cc1)S(=O)(=O)c1ccc(Cl)cc1 [Example 60, N-(2-Aminoethyl)-N-(4-chlorobenzenesulfonyl)-N′-[2-(4-chlorophenylamino)ethyl]-o-phenylenediamine] | – | – | MIC (Helicobacter pylori; [3]): 6.25 to 25 µg/mL (≈ 13 to 52.1 µM)
NCCN(c1ccccc1NCC=Cc1ccc(Cl)cc1)S(=O)(=O)c1ccc(Cl)cc1 [Example 62, N-(2-Aminoethyl)-N-(4-chlorobenzenesulfonyl)-N′-(4-chlorocinnamyl)-o-phenylenediamine] | – | – | MIC (Helicobacter pylori; [3]): 1.56 to 12.5 µg/mL (≈ 3.27 to 26.2 µM)
NCCN(c1ccccc1NCCSc1ccc(Cl)cc1)S(=O)(=O)c1ccc(Cl)cc1 [Example 65, N-(2-Aminoethyl)-N-(4-chlorobenzenesulfonyl)-N′-[2-(4-Chlorophenylthio)ethyl]-o-phenylenediamine] | – | – | MIC (Helicobacter pylori; [3]): 6.25 to 25 µg/mL (≈ 12.6 to 50.4 µM)
NCCN(c1cccnc1NCCOc1ccc(Cl)cc1)S(=O)(=O)c1ccc(Cl)cc1 [Example 106, 2-[2-(4-Chlorophenoxy)ethyl]amino-3-[N-(2-aminoethyl)-N-(4-chlorobenzenesulfonyl)]aminopyridine] | – | 98 | ED50 [1]: 8.4 mg/kg
COc1ccc(NCCNc2ncccc2N(CCN)S(=O)(=O)c2ccc(OC)cc2)cc1 [Example 112, 3-[N-(2-Aminoethyl)-N-(4-methoxybenzenesulfonyl)]amino-2-[2-(4-methoxyphenyl)aminoethyl]aminopyridine] | 12.5 to 50 | – | –
NCCN(c1ccccc1OCCNc1ccc(Cl)cc1)S(=O)(=O)c1ccc(Cl)cc1 [Example 122, 1-[2-(4-Chlorophenyl)aminoethoxy]-2-[N-(2-aminoethyl)-N-(4-chlorobenzenesulfonyl)]aminobenzene] | 12.5 to 25 | 99 | –

Second part, led by results:

MIC (Helicobacter pylori) [µg/mL] | SMILES | Suppression [1] [%] | also measured
1.56 to 6.25 | O=S(=O)(c1ccc(Cl)cc1)N(CCN1CCCC1)c1ccccc1NCCOc1ccc(Cl)cc1 [Example 8, N-(4-Chlorobenzenesulfonyl)-N-[2-(1-pyrolidino)ethyl]-N′-[2-(4-chlorophenoxy)ethyl]-o-phenylenediamine] | 86 | –
25 to 50 | O=C(NCCOCCN(c1ccccc1NCCOc1ccc(Cl)cc1)S(=O)(=O)c1ccc(Cl)cc1)NC1CCCCC1 [Example 17, N-(4-Chlorobenzenesulfonyl)-N-[2-(2-cyclohexylureido)ethoxyethyl]-N′-[2-(4-chlorophenoxy)ethyl]-o-phenylenediamine] | – | –
6.25 to 12.5 | O=S(=O)(Nc1cccnc1NCCNc1ccc(Cl)cc1)c1ccc(Cl)cc1 [Example 77] | – | –
>100 | NCCN(c1cccnc1N1CCN(c2ccc(Cl)cc2)C(=O)C1=O)S(=O)(=O)c1ccc(Cl)cc1 [Example 92, 3-[N-(4-Chlorobenzenesulfonyl)-N-(2-aminoethyl)]amino-2-[4-(4-chlorophenyl)-2,3-dioxo-1-piperadino]pyridine] | – | –
25 to 100 | O=S(=O)(c1ccc(Cl)cc1)N(CCN1CCNCC1)c1cccnc1NCCNc1ccc(Cl)cc1 [Example 97, 3-[N-(4-Chlorobenzenesulfonyl)-N-[2-(1-piperazinyl)ethyl]]amino-2-[2-(4-chlorophenyl)aminoethyl]aminopyridine] | 81 | –
25 (≈ 38.2 µM) | NCCN(c1cccnc1NCCN(c1ccc(Cl)cc1)S(=O)(=O)c1ccc(Cl)cc1)S(=O)(=O)c1ccc(Cl)cc1 [Example 111, 2-[2-[N-(4-Chlorophenyl)-N-(4-chlorobenzenesulfonyl)]aminoethyl]amino-3-[N-(2-aminoethyl)-N-(4-chlorobenzenesulfonyl)]aminopyridine] | 100 | –
25 to 50 | NCCN(c1cccnc1OCCNc1ccc(Cl)cc1)S(=O)(=O)c1ccc(Cl)cc1 [Example 113, 2-[2-(4-Chlorophenyl)aminoethoxy]-3-[N-(2-aminoethyl)-N-(4-chlorobenzenesulfonyl)]aminopyridine] | 87 | –
12.5 to 25 | Cc1ccc(NCCNc2ncccc2N(CCN)S(=O)(=O)c2ccc(C)cc2)cc1 [Example 114, 3-[N-(2-Aminoethyl)-N-(p-toluenesulfonyl)]amino-2-[2-(p-tolyl)aminoethyl]aminopyridine] | – | –
6.25 to 12.5 | CCN(CCNc1ncccc1N(CCN)S(=O)(=O)c1ccc(Cl)cc1)c1ccc(Cl)cc1 [Example 116, 2-[2-[N-(4-Chlorophenyl)-N-ethyl]aminoethyl]amino-3-[N-(2-aminoethyl)-N-(4-chlorobenzenesulfonyl)]aminopyridine] | 99 | –
3.13 to 12.5 | NCCN(c1cccnc1N1CCN(c2ccc(Cl)cc2)CC1)S(=O)(=O)c1ccc(Cl)cc1 [Example 136, 2-[4-(4-Chlorophenyl)-1-piperazino]-3-[N-(2-aminoethyl)-N-(4-chlorobenzenesulfonyl)]aminopyridine] | 80 | –
3.13 to 12.5 | CN(C)CCN(c1cccnc1N1CCN(c2ccc(Cl)cc2)CC1)S(=O)(=O)c1ccc(Cl)cc1 [Example 138, 2-[4-(4-Chlorophenyl)-1-piperazino]-3-[N-(2-dimethylaminoethyl)-N-(4-chlorobenzenesulfonyl)]aminopyridine] | – | –
